The source of these data is patent publication US8273774B2, “Phenoxypyridinylamide compounds” (AstraZeneca AB, priority 2008, dated 2012).

Structures can show the parent of a compound that is named as a salt.

recombinant Human Phosphodiesterase B2 (PDE4B2), sequence (Q07343 1-564 isoform Q07343-2): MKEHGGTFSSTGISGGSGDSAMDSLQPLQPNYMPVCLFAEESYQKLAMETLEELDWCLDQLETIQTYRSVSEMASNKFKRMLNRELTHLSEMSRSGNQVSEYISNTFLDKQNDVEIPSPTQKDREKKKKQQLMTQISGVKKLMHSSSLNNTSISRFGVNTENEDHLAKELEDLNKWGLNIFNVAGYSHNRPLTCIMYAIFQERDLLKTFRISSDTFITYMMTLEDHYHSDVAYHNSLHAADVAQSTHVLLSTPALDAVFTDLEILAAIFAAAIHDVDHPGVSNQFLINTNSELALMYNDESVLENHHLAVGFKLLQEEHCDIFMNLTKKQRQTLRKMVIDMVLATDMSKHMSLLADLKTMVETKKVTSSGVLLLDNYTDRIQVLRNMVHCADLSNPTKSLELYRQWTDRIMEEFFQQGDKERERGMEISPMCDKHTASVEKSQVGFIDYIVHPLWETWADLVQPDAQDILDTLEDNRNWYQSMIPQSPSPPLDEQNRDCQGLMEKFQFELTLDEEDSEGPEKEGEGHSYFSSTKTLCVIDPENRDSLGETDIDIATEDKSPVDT

This test concerns the target recombinant Human Phosphodiesterase B2 (PDE4B2) (Homo sapiens, UniProt Q07343). In words: Human Phosphodiesterase B2 Radiometric Assay. Format: biochemical. Particulars: 0.1 μg/mL recombinant PDE4B2; preincubated at 30 C for 30 min; [3H]cyclic AMP 8 nM, stopped after 20 min; yttrium silicate SPA beads; read-out: PDE4B2 pIC50 (converted). The method, then:
Human Phosphodiesterase B2 Radiometric Assay
The assay uses recombinant Human Phosphodiesterase B2 (PDE4B2) produced in house (PrAZL0163), stored at −20° C. This assay is based on the observation that 5′AMP, the product of the reaction catalysed by PDE4, binds preferentially to yttrium silicate SPA beads (Amersham Biosciences, UK) compared to the substrate, cAMP. Compounds at the appropriate concentration were preincubated at 30 C for 30 min with an assay buffer containing 50 mM HEPES (pH 7.5), 8.3 mM MgCl2, 1.7 mM EGTA, 0.01% (w/v) Brij®35 and 0.1 μg/mL recombinant PDE4B2. The reaction was started by the addition of [3H]cyclic AMP to give a final concentration of 8 nM, and was stopped 20 min after the addition of the substrate by the addition of yttrium silicate SPA beads containing 18 mM Zn SO4. Bound […] was measured using a Topcount NXT (Packard Bioscience, UK). pIC50 values (presented in Table 2) were determined using Xlfit3 curve fitting, using model 205.
As for `C[C@@H]1CN(CCCc2cccc(-c3cccc(Oc4ncc(F)cc4C(=O)N[C@H]4CC[C@@H](NC(=O)c5cc6n(n5)CCCC6)CC4)c3)c2)C[C@H](C)N1` [Example 174, N-((1s,4s)-4-(2-(3′-(3-((3S,5R)-3,5-Dimethylpiperazin-1-yl)propyl)biphenyl-3-yloxy)-5-fluoronicotinamido)cyclohexyl)-4,5,6,7-tetrahydropyrazolo[1,5-a]pyridine-2-carboxamide], the IC50 is 0.1 nM.
Then `Cc1cccc2nc(C(=O)N[C@H]3CC[C@@H](NC(=O)c4cc(F)cnc4Oc4cccc(-c5ccc(CN6CCC(N7CCCC7)CC6)cc5)c4)CC3)cn12` [Example 109, N-((1s,4s)-4-(5-fluoro-2-(4′-((4-(pyrrolidin-1-yl)piperidin-1-yl)methyl)biphenyl-3-yloxy)nicotinamido)cyclohexyl)-5-methylimidazo[1,2-a]pyridine-2-carboxamide], with 0.0631 nM; and `CCc1nc(C(=O)N[C@H]2CC[C@@H](NC(=O)c3cc(F)cnc3Oc3cccc(-c4ccc(CN5C[C@@H](C)N[C@@H](C)C5)cc4)c3)CC2)cs1` [Example 76, N-((1s,4s)-4-(2-(4′-(((3S,5R)-3,5-dimethylpiperazin-1-yl)methyl)biphenyl-3-yloxy)-5-fluoronicotinamido)cyclohexyl)-2-ethylthiazole-4-carboxamide], with 0.0631 nM; and `Cc1cccc2nc(C(=O)N[C@H]3CC[C@@H](NC(=O)c4cc(F)cnc4Oc4cccc(-c5ccc(CN(C)CCO)cc5)c4)CC3)cn12` [Example 51, N-((1s,4s)-4-(5-fluoro-2-(4′-(((2-hydroxyethyl)(methyl)amino)methyl)biphenyl-3-yloxy)nicotinamido)cyclohexyl)-5-methylimidazo[1,2-a]pyridine-2-carboxamide], with 0.1 nM.
Under `O=C(N[C@H]1CC[C@@H](NC(=O)c2cc(F)cnc2Oc2cccc(-c3ccc(O)cc3CN3CCSCC3)c2)CC1)c1cn2cc(F)ccc2n1` [Example 21, 6-fluoro-N-((1s,4s)-4-(5-fluoro-2-(4′-hydroxy-2′-(thiomorpholinomethyl)biphenyl-3-yloxy)nicotinamido)cyclohexyl)imidazo[1,2-a]pyridine-2-carboxamide] stands 0.0501 nM.
As to `C[C@@H]1CN(Cc2ccc(-c3cccc(Oc4ncc(F)cc4C(=O)N[C@H]4CC[C@@H](NC(=O)c5cccc6cccnc56)CC4)c3)c(CN3CCOCC3)c2)C[C@H](C)N1` [Example 146, N-((1s,4s)-4-(2-(4′-(((3S,5R)-3,5-dimethylpiperazin-1-yl)methyl)-2′-(morpholinomethyl)biphenyl-3-yloxy)-5-fluoronicotinamido)cyclohexyl)quinoline-8-carboxamide], the IC50 is 0.0316 nM.
Under `Cc1cc(C(=O)N[C@H]2CC[C@@H](NC(=O)c3cc(F)cnc3Oc3cccc(-c4cccc(CCCN5CCN[C@@H](C)C5)c4)c3)CC2)nn1C` [Example 139, N-((1s,4s)-4-(1,5-dimethyl-1H-pyrazole-3-carboxamido)cyclohexyl)-5-fluoro-2-(3′-(3-((S)-3-methylpiperazin-1-yl)propyl)biphenyl-3-yloxy)nicotinamide] stands 0.0794 nM; under `Cc1nc(C(=O)N[C@H]2CC[C@@H](NC(=O)c3cc(F)cnc3Oc3cccc(-c4ccc(CCCN5CCCNCC5)cc4)c3)CC2)cs1` [Example 135, N-((1s,4s)-4-(2-(4′-(3-(1,4-diazepan-1-yl)propyl)biphenyl-3-yloxy)-5-fluoronicotinamido)cyclohexyl)-2-methylthiazole-4-carboxamide], 0.0501 nM.
Consider `CN(C)Cc1cc(O)ccc1-c1cccc(Oc2ncc(F)cc2C(=O)N[C@H]2CC[C@@H](NC(=O)c3cn4cc(F)ccc4n3)CC2)c1` [Example 12, N-((1s,4s)-4-(2-(2′-((dimethylamino)methyl)-4′-hydroxybiphenyl-3-yloxy)-5-fluoronicotinamido)cyclohexyl)-6-fluoroimidazo[1,2-a]pyridine-2-carboxamide], for which the IC50 is 0.0501 nM.
In the case of `O=C(N[C@H]1CC[C@@H](NC(=O)c2cc(F)cnc2Oc2cccc(-c3ccc(O)cc3CN3CCCOCC3)c2)CC1)c1cn2cc(F)ccc2n1` [Example 13, N-((1s,4s)-4-(2-(2′-((1,4-oxazepan-4-yl)methyl)-4′-hydroxybiphenyl-3-yloxy)-5-fluoronicotinamido)cyclohexyl)-6-fluoroimidazo[1,2-a]pyridine-2-carboxamide], the IC50 is 0.02 nM.
Then `C[C@@H]1CN(Cc2cc(-c3cccc(Oc4ncc(F)cc4C(=O)N[C@H]4CC[C@@H](NC(=O)c5cnn6cccnc56)CC4)c3)ccc2O)C[C@H](C)N1` [Example 125, N-((1s,4s)-4-(2-(3′-(((3S,5R)-3,5-dimethylpiperazin-1-yl)methyl)-4′-hydroxybiphenyl-3-yloxy)-5-fluoronicotinamido)cyclohexyl)pyrazolo[1,5-a]pyrimidine-3-carboxamide], with 0.0631 nM; and `O=C(N[C@H]1CC[C@@H](NC(=O)c2cc(F)cnc2Oc2cccc(-c3ccc(CCCN4CCCNCC4)cc3)c2)CC1)c1cc2n(n1)CCCC2` [Example 127, N-((1s,4s)-4-(2-(4′-(3-(1,4-diazepan-1-yl)propyl)biphenyl-3-yloxy)-5-fluoronicotinamido)cyclohexyl)-4,5,6,7-tetrahydropyrazolo[1,5-a]pyridine-2-carboxamide], with 0.0794 nM; and `Cc1cc(CN[C@H]2CC[C@@H](NC(=O)c3cc(F)cnc3Oc3cccc(-c4ccc(O)cc4CN4CCOCC4)c3)CC2)nn1C` [Example 3, N-((1s,4s)-4-((1,5-dimethyl-1H-pyrazol-3-yl)methylamino)cyclohexyl)-5-fluoro-2-(4′-hydroxy-2′-(morpholinomethyl)biphenyl-3-yloxy)nicotinamide trifluoroacetate], with 1.26 nM.
Under `C[C@@H]1CN(Cc2ccc(-c3cccc(Oc4ncc(F)cc4C(=O)N[C@H]4CC[C@@H](NC(=O)c5cn6cc(F)ccc6n5)CC4)c3)cc2)C[C@H](C)N1` [Example 67, N-((1s,4s)-4-(2-(4′-(((3S,5R)-3,5-dimethylpiperazin-1-yl)methyl)biphenyl-3-yloxy)-5-fluoronicotinamido)cyclohexyl)-6-fluoroimidazo[1,2-a]pyridine-2-carboxamide] stands 0.1 nM.
Regarding `Cc1nc(C(=O)N[C@H]2CC[C@@H](NC(=O)c3cc(F)cnc3Oc3cccc(-c4ccc(CCN5CCNCC5)cc4)c3)CC2)cs1` [Example 177, N-((1s,4s)-4-(5-Fluoro-2-(4′-(2-(piperazin-1-yl)ethyl)biphenyl-3-yloxy)nicotinamido)cyclohexyl)-2-methylthiazole-4-carboxamide], the IC50 is 0.0501 nM.
Then `Cc1cccc2nc(C(=O)N[C@H]3CC[C@@H](NC(=O)c4cc(F)cnc4Oc4cccc(-c5ccc(CN6CCCN(C)CC6)cc5CN5CCOCC5)c4)CC3)cn12` [Example 185, N-((1s,4s)-4-(5-Fluoro-2-(4′-((4-methyl-1,4-diazepan-1-yl)methyl)-2′-(morpholinomethyl)biphenyl-3-yloxy)nicotinamido)cyclohexyl)-5-methylimidazo[1,2-a]pyridine-2-carboxamide], with 0.02 nM; and `O=C(N[C@H]1CC[C@@H](NC(=O)c2cc(F)cnc2Oc2cccc(-c3ccc(CCCNCCCO)cc3)c2)CC1)c1cc2n(n1)CCCC2` [Example 128, N-((1s,4s)-4-(5-fluoro-2-(4′-(3-(3-hydroxypropylamino)propyl)biphenyl-3-yloxy)nicotinamido)cyclohexyl)-4,5,6,7-tetrahydropyrazolo[1,5-a]pyridine-2-carboxamide], with 0.126 nM.
In the case of `CC(C)NC(=O)CN1CCN(Cc2ccc(-c3cccc(Oc4ncc(F)cc4C(=O)N[C@H]4CC[C@@H](NC(=O)c5cccc6[nH]cnc56)CC4)c3)c(CN3CCOCC3)c2)CC1` [Example 201, N-((1s,4s)-4-(5-fluoro-2-(4′-((4-(2-(isopropylamino)-2-oxoethyl)piperazin-1-yl)methyl)-2′-(morpholinomethyl)biphenyl-3-yloxy)nicotinamido)cyclohexyl)-1H-benzo[d]imidazole-4-carboxamide], the IC50 was 0.0158 nM.
For the compound `Cn1nc(C(=O)N[C@H]2CC[C@@H](NC(=O)c3cc(F)cnc3Oc3cccc(-c4ccc(CCCN5CCNCC5)cc4)c3)CC2)cc1C(F)(F)F` [Example 160, 5-Fluoro-N-((1s,4s)-4-(1-methyl-5-(trifluoromethyl)-1H-pyrazole-3-carboxamido)cyclohexyl)-2-(4′-(3-(piperazin-1-yl)propyl)biphenyl-3-yloxy)nicotinamide], the IC50 is 0.01 nM.
Then `C[C@@H]1CN(Cc2ccc(-c3cccc(Oc4ncc(F)cc4C(=O)N[C@H]4CC[C@@H](NC(=O)c5cn6cc(F)ccc6n5)CC4)c3)c(CN3CCSCC3)c2)C[C@H](C)N1` [Example 169, N-((1s,4s)-4-(2-(4′-(((3S,5R)-3,5-Dimethylpiperazin-1-yl)methyl)-2′-(thiomorpholinomethyl)biphenyl-3-yloxy)-5-fluoronicotinamido)cyclohexyl)-6-fluoroimidazo[1,2-a]pyridine-2-carboxamide], with 0.02 nM.
Under `O=C(N[C@H]1CC[C@@H](NC(=O)c2cnn3cccnc23)CC1)c1cc(F)cnc1Oc1cccc(-c2ccc(CN3CCSCC3)cc2CN2CCOCC2)c1` [Example 197, N-((1s,4s)-4-(5-fluoro-2-(2′-(morpholinomethyl)-4′-(thiomorpholinomethyl)biphenyl-3-yloxy)nicotinamido)cyclohexyl)pyrazolo[1,5-a]pyrimidine-3-carboxamide] stands 0.02 nM.
